In PubChem BioAssay (NCI):
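96-well plates; 48 h exposure; 5 concentrations. Endpoints by linear interpolation between flanking doses. Not reached: highest tested concentration assigned. GI50: concentration for 50% inhibition of growth. TGI denotes the concentration required for complete inhibition of growth.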

Experiments:
Assay in all cases: NCI tumour cell line growth inhibition, 48 h
BT-549 breast = test system: BT-549 breast
HCT-15 colon = test system: HCT-15 colon
HL-60(TB) leukemia = test system: HL-60(TB) leukemia
HS 578T breast = test system: HS 578T breast
M14 melanoma = test system: M14 melanoma
MCF7 breast = test system: MCF7 breast
NCI/ADR-RES ovarian = test system: NCI/ADR-RES ovarian
PC-3 prostate = test system: PC-3 prostate
SF-268 CNS = test system: SF-268 CNS
SF-295 CNS = test system: SF-295 CNS
SK-MEL-5 melanoma = test system: SK-MEL-5 melanoma
SNB-19 CNS = test system: SNB-19 CNS
SR leukemia = test system: SR leukemia
UACC-257 melanoma = test system: UACC-257 melanoma
UACC-62 melanoma = test system: UACC-62 melanoma
NCI-H23 lung = test system: NCI-H23 lung
786-0 renal = test system: 786-0 renal
A498 renal = test system: A498 renal
A549 NSCLC = test system: A549 NSCLC
ACHN renal = test system: ACHN renal
CAKI-1 renal = test system: CAKI-1 renal
CCRF-CEM leukemia = test system: CCRF-CEM leukemia
COLO 205 colon = test system: COLO 205 colon
DU-145 prostate = test system: DU-145 prostate
HCC-2998 colon = test system: HCC-2998 colon
HCT-116 colon = test system: HCT-116 colon
HOP-62 NSCLC = test system: HOP-62 NSCLC
HOP-92 NSCLC = test system: HOP-92 NSCLC
HT29 colon = test system: HT29 colon
IGROV1 ovarian = test system: IGROV1 ovarian
K-562 leukemia = test system: K-562 leukemia
KM12 colon = test system: KM12 colon
LOX IMVI melanoma = test system: LOX IMVI melanoma
MALME-3M melanoma = test system: MALME-3M melanoma
MDA-MB-231 breast = test system: MDA-MB-231 breast
MDA-MB-435 = test system: MDA-MB-435
MOLT-4 leukemia = test system: MOLT-4 leukemia
NCI-H226 lung = test system: NCI-H226 lung
NCI-H460 lung = test system: NCI-H460 lung
NCI-H522 lung = test system: NCI-H522 lung
OVCAR-3 ovarian = test system: OVCAR-3 ovarian
OVCAR-4 ovarian = test system: OVCAR-4 ovarian
OVCAR-5 ovarian = test system: OVCAR-5 ovarian
OVCAR-8 ovarian = test system: OVCAR-8 ovarian
RPMI-8226 leukemia = test system: RPMI-8226 leukemia
RXF 393 renal = test system: RXF 393 renal
SF-539 CNS = test system: SF-539 CNS
SK-MEL-2 melanoma = test system: SK-MEL-2 melanoma
SK-MEL-28 melanoma = test system: SK-MEL-28 melanoma
SK-OV-3 ovarian = test system: SK-OV-3 ovarian
SN12C renal = test system: SN12C renal
SNB-75 CNS = test system: SNB-75 CNS
SW-620 colon = test system: SW-620 colon
T-47D breast = test system: T-47D breast
TK-10 renal = test system: TK-10 renal
U251 CNS = test system: U251 CNS
UO-31 renal = test system: UO-31 renal

## CCOC(=O)c1cc(C(=O)c2cc(OC)cc(OC)c2)n2ncc3ccccc3c12
BT-549 breast
  GI50: 1.18 µM
  TGI: > 100 µM
HCT-15 colon
  GI50: 0.484 µM
  TGI: > 100 µM
HL-60(TB) leukemia
  GI50: 0.82 µM
  TGI: > 100 µM
HS 578T breast
  GI50: 1.84 µM
  TGI: > 100 µM
M14 melanoma
  GI50: 0.485 µM
  TGI: > 100 µM
MCF7 breast
  GI50: 0.41 µM
  TGI: > 100 µM
NCI/ADR-RES ovarian
  GI50: 0.476 µM
  TGI: > 100 µM
PC-3 prostate
  GI50: 0.839 µM
  TGI: > 100 µM
SF-268 CNS
  GI50: 1.59 µM
  TGI: > 100 µM
SF-295 CNS
  GI50: 0.483 µM
  TGI: > 100 µM
SK-MEL-5 melanoma
  GI50: 0.623 µM
  TGI: > 100 µM
SNB-19 CNS
  GI50: 1.57 µM
  TGI: > 100 µM
SR leukemia
  GI50: 0.442 µM
  TGI: > 100 µM
UACC-257 melanoma
  GI50: > 100 µM
  TGI: > 100 µM
UACC-62 melanoma
  GI50: 0.692 µM
  TGI: > 100 µM

## COc1cc2nc(N3CCN(C(=O)c4ccco4)CC3)nc(N)c2cc1OC
NCI-H23 lung
  TGI: 27.1 µM

## CC(=O)[O-].CC(=O)[O-].[NH2-].[Pt+2].c1ccncc1
786-0 renal
  TGI: > 100 µM
A498 renal
  TGI: > 100 µM
A549 NSCLC
  TGI: > 100 µM
ACHN renal
  TGI: 32.2 µM
CAKI-1 renal
  TGI: > 100 µM
CCRF-CEM leukemia
  TGI: > 100 µM
COLO 205 colon
  TGI: > 100 µM
DU-145 prostate
  GI50: 4.62 µM
  TGI: 51.9 µM
HCC-2998 colon
  TGI: > 100 µM
HCT-116 colon
  TGI: > 100 µM
HCT-15 colon
  TGI: > 100 µM
HL-60(TB) leukemia
  TGI: 43.7 µM
HOP-62 NSCLC
  TGI: > 100 µM
HOP-92 NSCLC
  TGI: > 100 µM
HS 578T breast
  GI50: 98.7 µM
  TGI: > 100 µM
HT29 colon
  TGI: > 100 µM
IGROV1 ovarian
  TGI: > 100 µM
K-562 leukemia
  TGI: 71.6 µM
KM12 colon
  TGI: > 100 µM
LOX IMVI melanoma
  TGI: > 100 µM
M14 melanoma
  TGI: > 100 µM
MALME-3M melanoma
  TGI: > 100 µM
MCF7 breast
  GI50: 19.4 µM
  TGI: 65.9 µM
MDA-MB-231 breast
  GI50: > 100 µM
  TGI: > 100 µM
MDA-MB-435
  GI50: 53.2 µM
  TGI: > 100 µM
MOLT-4 leukemia
  TGI: 27.3 µM
NCI-H226 lung
  TGI: > 100 µM
NCI-H23 lung
  TGI: > 100 µM
NCI-H460 lung
  TGI: > 100 µM
NCI-H522 lung
  TGI: 44.2 µM
NCI/ADR-RES ovarian
  GI50: 80 µM
  TGI: > 100 µM
OVCAR-3 ovarian
  TGI: > 100 µM
OVCAR-4 ovarian
  TGI: > 100 µM
OVCAR-5 ovarian
  TGI: > 100 µM
OVCAR-8 ovarian
  TGI: 40.1 µM
PC-3 prostate
  GI50: > 100 µM
  TGI: > 100 µM
RPMI-8226 leukemia
  TGI: > 100 µM
RXF 393 renal
  TGI: 64.6 µM
SF-268 CNS
  TGI: > 100 µM
SF-295 CNS
  TGI: > 100 µM
SF-539 CNS
  TGI: 55.1 µM
SK-MEL-2 melanoma
  TGI: > 100 µM
SK-MEL-28 melanoma
  TGI: > 100 µM
SK-MEL-5 melanoma
  TGI: > 100 µM
SK-OV-3 ovarian
  TGI: > 100 µM
SN12C renal
  TGI: > 100 µM
SNB-19 CNS
  TGI: > 100 µM
SNB-75 CNS
  TGI: > 100 µM
SW-620 colon
  TGI: > 100 µM
T-47D breast
  GI50: 59.4 µM
  TGI: > 100 µM
TK-10 renal
  TGI: > 100 µM
U251 CNS
  TGI: > 100 µM
UACC-62 melanoma
  TGI: > 100 µM
UO-31 renal
  TGI: > 100 µM
